Experimental findings from patent US20090270435A1 (priority 2006, published 2009) are described below.

The test system of experiment [1] is hepatic fatty acid synthesis. The experiment can be described thus: Measurement of fatty acid synthesis inhibition in experimental animals ([2-14C]acetate into saponifiable lipids in liver). It is filed as in vivo, Sprague Dawley rats. The following applies: Rattus norvegicus; for inhibition at 30 mg/kg: po, read-out: Percent Inhibition at 30 mg/kg. An excerpt:
The ACC inhibitory activity of compounds of this invention, and the salts of such compounds, can be confirmed in vivo by evaluation of their ability to inhibit hepatic fatty acid production and to stimulate whole body fatty acid oxidation using methods based on standard procedures. For example, since ACC catalyzes the first committed step in the biosynthesis of fatty acids, the in vivo activity of these compounds can be confirmed by measuring the ability of the compounds of this invention, and the salts of such compounds, to prevent the formation of radio labeled fatty acids from radio labeled acetate in the livers of treated mammals.
[1] Measurement of fatty acid synthesis inhibition in experimental animals. Incorporation of [2-^14C]acetate into saponifyable lipids in the livers of mammals (e.g. CDI mice, C57BI/6J-ob/ob mice, Sprague Dawley rats (available from Charles River Boston, Mass. or Jackson Labs Bar Harbor, Me.)) can be measured essentially as previously described for assessment of hepatic sterol synthesis (Harwood et al, Biochem. Pharmacol, 40: 1281-1293, 1990; Harwood et al. Biochem. Pharmacol. 53: 839-864, 1997) with the following modifications to allow for assessment fatty acid synthesis. For example, Sprague Dawley rats are administered a 0.1 ml per 40 g body weight of an oral bolus of vehicle (e.g. water or 0.5% methylcellulose in water)±test compound. One to four hours after compound administration, animals receive an intraperitoneal injection of 0.5 ml of [2-^14C]acetate (64 μCi/ml; 57 mCi/mmol). One hour after radiolabel administration, animals are sacrificed by CO2 asphyxiation and two, 0.75 g liver pieces are removed and saponified at […]. for 120 minutes in 1.5 ml of 2.5 M NaOH. After saponification, 2.5 ml of absolute EtOH are added to each sample and the solutions are mixed and allowed to stand overnight. Petroleum ether, 4.8 ml, is then added to each sample and the mixtures are first shaken vigorously for 2 minutes then centrifuged at 1000×g in a bench-top Sorvall®9 for 5 minutes. The resultant petroleum ether layers, which contain the nonsaponifyable lipids (e.g. cholesterol, post-squalene cholesterol precursors and other non-saponifiable lipids), are removed and discarded. The remaining aqueous layer (containing fatty acid sodium salts) is acidified to pH<2 by addition of 0.6 ml of 12 M HCl and extracted two times with 4.8 ml of petroleum ether. The pooled organic fractions (containing protonated fatty acids) are transferred to liquid scintillation vials, dried under nitrogen, dissolved in 7 ml of Aqua sol liquid scintillation fluid, and assessed for radioactivity using a liquid scintillation counter. Inhibition of fatty acid synthesis by the test compound is expressed as the concentration required to reduce by 50% the dpm [2-^14C]acetate incorporated into saponifiable lipids during the 1 hour interval between radio labeled acetate injection and CO2 asphyxiation.
Some compounds of the present were evaluated for inhibition of fatty acid synthesis as described above. As shown below, these compounds were all observed to inhibit the synthesis of fatty acids in vivo.

Experiment [2] has as its target T1, ACC1 from rat liver (Rattus norvegicus, UniProt P11497).
T1 construct: The livers (for ACC1 preparation) or skeletal muscle tissue (for ACC2 preparation) are removed; from tissue; host or cells: liver of male CD rats (fasted, then fed a high sucrose diet)
The experiment in a line: Direct inhibition of ACC1 activity (14C-bicarbonate incorporation). It is filed as biochemical. Summed up: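 ACC1 partially purified from livers of fasted/sucrose-refed male rats by PEG and ammonium sulfate fractionation, then preincubated 30 min at 37°C with 10 mM citrate and 1.0 mM MgCl2. Reaction ran 7 min at 37°C, stopped with HCl; acid-stable radioactivity counted by scintillation; HCl-first tubes served as blanks.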

In experiment [3] the target is T2, ACC2 from rat skeletal muscle (Rattus norvegicus, UniProt Q1HEC0).
T2 construct: The livers (for ACC1 preparation) or skeletal muscle tissue (for ACC2 preparation) are removed; from tissue; host or cells: skeletal muscle of male CD rats (fasted, then fed a high sucrose diet)
The experiment in a line: Direct inhibition of ACC2 activity (14C-bicarbonate incorporation). The class given is biochemical. Here is the method:
For example direct inhibition of ACC1 and ACC2 activity, for compounds of Formula (1) were determined using preparations of ACC1 from rat liver and ACC2 from rat skeletal muscle.
[1] Preparation of ACC1 and ACC2. ACC1 was obtained from rat liver and ACC2 was obtained from rat skeletal muscle based upon standard procedures such as those described by Thampy and Wakil (J. Biol. Chem. 260: 6318-6323; 1985) using the following method.
Male CD rats weighing 150-200 g are fasted for 2 days and then fed a high sucrose diet (AIN-76A rodent diet; Cat # D10001, Research Diets Inc., New Brunswick, N.J.), for 3 days at which time they are sacrificed by CO2 asphyxiation. The livers (for ACC1 preparation) or skeletal muscle tissue (for ACC2 preparation) are removed, rinsed in ice-cold phosphate-buffered saline (PBS), and homogenized in 5 volumes of homogenization buffer (50 mM potassium phosphate, pH 7.5, 10 mM EDTA, 10 mM 2-mercaptoethanol, 2 mM benzamidine, 0.2 mM phenylmethylsulfonylfluoride (PMSF), 5 mg/L each leupeptin, aprotinin, and antitrypsin) in a Waring® blender for 1 minute at 4° C. All subsequent operations are carried out at 4° C. The homogenate is made 3% with respect to polyethylene glycol (PEG) by the addition of 50% PEG solution and centrifuged at 20,000×g for 15 minutes. The resulting supernatant is adjusted to 5% PEG with the addition of 50% PEG solution and stirred for 5 minutes. The pellet (contains ACC activity) is collected by centrifugation at 20,000×g for 20 minutes, rinsed with Ice-cold doubly distilled water to remove excess PEG and re-suspended in one-fourth the original homogenate volume with homogenization buffer. Ammonium sulfate (200 g/liter) is slowly added with stirring. After 45 minutes the enzyme is collected by centrifugation for 30 minutes at 20,000×g, re-suspended in 10 ml of 50 mM HEPES, pH7.5, 0.1 mM DTT, 1.0 mM EDTA, and 10% glycerol and desalted on a Sephadex™ G-25 column (2.5 cm-x 50 cm) (Pharmacia, Piscataway N.J. now GE Healthcare) […] equilibrated with the same buffer. The desalted enzyme preparation is stored in aliquots at −70° C. Immediately prior to use, frozen ACC1 or ACC2 aliquots are thawed, diluted to 500 μg/ml in buffer containing 50 mM HEPES, pH7.5, 1.0 mM MgCl2, 10 mM tripotassium citrate, 2.0 mM dithiothreitol (DTT), and 0.75 mg/ml fatty acid-free bovine serum albumin (BSA) and pre-incubated at 37° C. for 30 minutes.
[2] Measurement of ACC inhibition. The procedures for measuring ACC1 inhibition and ACC2 inhibition are identical except for the source of the isozyme. For measurement of ACC activity and assessment of ACC inhibition, test compounds are dissolved in dimethylsulfoxide (DMSO) and 1 μL aliquots are placed in 0.5 ml polypropylene tubes. Control tubes contain 1 μL of DMSO alone. Tubes are incubated at 37° C. in a constant temperature water bath. […] The reaction is then initiated by the addition of 10 μL of preincubated ACC fraction prepared as described above. After 7 minutes the reaction is terminated by the addition of 50 μL of 6N HCl and a 150 μL aliquot of the reaction mixture is transferred to glass scintillation vials and evaporated to dryness at 90° C. for at least 1 hour. The dried vials are then cooled, 0.5 ml of water and 5.5 ml of Ready Safe liquid scintillation fluid (Beckman Coulter Inc., Fullerton, Calif.) are added, and the radioactivity is determined using a liquid scintillation counter. Tubes that received HCl before ACC served as blanks.
[3] Specificity for ACC1 vs ACC2 inhibition. The specificity of a compound for Inhibiting ACC1 vs ACC2 can be determined by comparing the concentration of test compound required to inhibit 50% of the activity contained in an aliquot of ACC1 as compared with the concentration of the same compound required to inhibit 50% of the activity of an aliquot of ACC2.

In general, IC50 refers to the concentration at which inhibition is half-maximal. Read a low IC50 as greater potency in that assay.

SMILES strings stand for the structures.

T2 sequence (Q1HEC0 17-2455): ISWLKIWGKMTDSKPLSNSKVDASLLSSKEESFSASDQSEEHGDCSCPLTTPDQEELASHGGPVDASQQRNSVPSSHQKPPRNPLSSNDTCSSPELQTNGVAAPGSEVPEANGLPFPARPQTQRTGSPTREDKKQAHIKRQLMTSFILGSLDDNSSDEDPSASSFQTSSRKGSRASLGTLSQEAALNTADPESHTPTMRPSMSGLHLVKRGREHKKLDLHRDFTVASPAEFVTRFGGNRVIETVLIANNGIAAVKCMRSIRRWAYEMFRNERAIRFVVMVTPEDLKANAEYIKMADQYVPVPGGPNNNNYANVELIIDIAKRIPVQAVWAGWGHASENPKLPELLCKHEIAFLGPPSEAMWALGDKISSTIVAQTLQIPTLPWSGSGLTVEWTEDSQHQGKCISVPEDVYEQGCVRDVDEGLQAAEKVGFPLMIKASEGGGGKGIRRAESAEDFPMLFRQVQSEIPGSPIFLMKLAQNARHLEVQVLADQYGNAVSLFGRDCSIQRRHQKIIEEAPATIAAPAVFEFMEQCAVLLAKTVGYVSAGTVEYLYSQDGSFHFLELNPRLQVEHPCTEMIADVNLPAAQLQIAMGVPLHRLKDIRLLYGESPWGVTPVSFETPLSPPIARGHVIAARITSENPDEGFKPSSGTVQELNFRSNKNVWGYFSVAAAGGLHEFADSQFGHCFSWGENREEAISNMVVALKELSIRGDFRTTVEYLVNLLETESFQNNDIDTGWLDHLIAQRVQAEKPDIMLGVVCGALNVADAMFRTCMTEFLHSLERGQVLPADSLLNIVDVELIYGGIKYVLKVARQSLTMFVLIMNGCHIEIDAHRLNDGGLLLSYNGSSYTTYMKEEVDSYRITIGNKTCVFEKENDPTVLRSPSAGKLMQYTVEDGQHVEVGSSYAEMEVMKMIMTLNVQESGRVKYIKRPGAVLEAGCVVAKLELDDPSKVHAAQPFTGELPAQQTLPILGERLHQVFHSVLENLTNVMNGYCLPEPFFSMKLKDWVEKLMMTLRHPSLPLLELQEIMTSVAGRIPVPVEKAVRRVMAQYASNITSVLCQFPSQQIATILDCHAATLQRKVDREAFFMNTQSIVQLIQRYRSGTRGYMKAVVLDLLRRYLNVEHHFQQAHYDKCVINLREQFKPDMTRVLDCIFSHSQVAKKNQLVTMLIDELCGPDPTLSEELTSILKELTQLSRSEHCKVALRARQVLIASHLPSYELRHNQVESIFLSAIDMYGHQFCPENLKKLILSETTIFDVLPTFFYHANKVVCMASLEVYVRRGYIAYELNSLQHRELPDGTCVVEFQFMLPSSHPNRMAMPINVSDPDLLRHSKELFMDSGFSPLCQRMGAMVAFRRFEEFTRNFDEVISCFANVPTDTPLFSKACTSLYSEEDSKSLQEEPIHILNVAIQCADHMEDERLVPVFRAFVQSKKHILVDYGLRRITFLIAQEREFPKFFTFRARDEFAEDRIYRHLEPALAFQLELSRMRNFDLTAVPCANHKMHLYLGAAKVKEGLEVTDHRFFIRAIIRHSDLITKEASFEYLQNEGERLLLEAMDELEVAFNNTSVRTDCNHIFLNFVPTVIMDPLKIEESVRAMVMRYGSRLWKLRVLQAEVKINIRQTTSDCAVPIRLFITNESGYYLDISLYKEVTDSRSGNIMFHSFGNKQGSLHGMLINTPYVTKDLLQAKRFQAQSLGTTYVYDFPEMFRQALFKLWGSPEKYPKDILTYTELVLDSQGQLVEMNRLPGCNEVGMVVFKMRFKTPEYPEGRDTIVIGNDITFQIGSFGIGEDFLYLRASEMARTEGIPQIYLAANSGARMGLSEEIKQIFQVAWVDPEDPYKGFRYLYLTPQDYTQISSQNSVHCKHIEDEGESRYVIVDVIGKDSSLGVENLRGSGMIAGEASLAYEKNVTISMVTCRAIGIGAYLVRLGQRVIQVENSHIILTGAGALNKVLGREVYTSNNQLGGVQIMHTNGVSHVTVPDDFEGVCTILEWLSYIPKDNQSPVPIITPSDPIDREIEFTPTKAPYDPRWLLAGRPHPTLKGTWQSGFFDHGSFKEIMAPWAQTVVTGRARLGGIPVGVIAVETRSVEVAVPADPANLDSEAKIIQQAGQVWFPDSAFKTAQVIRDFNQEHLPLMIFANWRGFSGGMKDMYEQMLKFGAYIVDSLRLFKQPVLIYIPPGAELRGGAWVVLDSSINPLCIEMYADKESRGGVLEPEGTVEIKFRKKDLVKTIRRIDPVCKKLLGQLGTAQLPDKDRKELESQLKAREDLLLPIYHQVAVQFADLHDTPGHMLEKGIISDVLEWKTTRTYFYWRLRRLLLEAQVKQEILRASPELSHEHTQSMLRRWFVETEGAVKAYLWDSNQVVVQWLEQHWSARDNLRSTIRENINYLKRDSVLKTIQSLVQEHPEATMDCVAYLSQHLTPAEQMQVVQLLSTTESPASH

With `Cc1cc(C(=O)N2CCC3(CC2)CC(=O)c2cc(OC(F)(F)F)ccc2O3)cc2cn[nH]c12` [Ex. A12, 1′-[(7-methyl-1H-indazol-5-yl)carbonyl]-6-(trifluoromethoxy)spiro[chromene-2,4-piperidin]-4(3H)-one], the inhibition at 30 mg/kg in experiment [1] is 38.7%. Besides, in experiment [2] (ACC1 from rat liver), half-maximal inhibition (IC50) required 41.9 nM.
As to `Cc1cc2c(cc1C)C(=O)CC1(CCN(C(=O)c3ccc4[nH]ncc4c3)CC1)O2` [Ex. E1, 1′-(1H-indazol-5-ylcarbonyl)-6,7-dimethylspiro[chromene-2,4′-piperidin]-4(3H)-one], the inhibition at 30 mg/kg in experiment [1] was 30.9%. Further, 96.5 nM corresponded to half-maximal inhibition in experiment [2] (ACC1 from rat liver) (IC50).
With `Cc1cc2c(cc1C)C(=O)CC1(CCN(C(=O)c3cc(C)c4[nH]ncc4c3)CC1)O2` [Ex. A1, 6,7-dimethyl-1′-[(7-methyl-1H-indazol-5-yl)carbonyl]spiro-[chromene-2,4′-piperidin]-4(3H)-one], the IC50 in experiment [3] (ACC2 from rat skeletal muscle) was 36.4 nM; in experiment [2] (ACC1 from rat liver), 23.5 nM. Further, the inhibition at 30 mg/kg in experiment [1] was 35.4%.
With `COc1ccc2c(c1)C(=O)CC1(CCN(C(=O)c3cc(C)c4[nH]ncc4c3)CC1)O2` [Ex. A16, 6-methoxy-1′-[(7-methyl-1H-indazol-5-yl)carbonyl]spiro[chromene-2,4′-piperidin]-4(3H)-one], in experiment [1], the inhibition at 30 mg/kg worked out at 83%. Moreover, the inhibition at 10 mg/kg in experiment [1] (inhibition of fatty acid synthesis in vivo, 10 mg/kg, oral bolus, read-out: Percent Inhibition at 10 mg/kg) was found to be 68%. The compound also displayed a half-maximal inhibitory concentration (IC50) in experiment [2] (ACC1 from rat liver) of 55.1 nM.
As for `Cc1cc2c(cc1Cl)C(=O)CC1(CCN(C(=O)c3cc(C)c4[nH]ncc4c3)CC1)O2` [Ex. A13, 6-chloro-7-methyl-1′-[(7-methyl-1H-indazol-5-yl)carbonyl]spiro[chromene-2,4′-piperidin]-4(3H)-one], in experiment [1], the inhibition at 30 mg/kg stood at 64%. Moreover, the IC50 in experiment [2] (ACC1 from rat liver) was 45 nM.
With `N#Cc1ccc2c(c1)C(=O)CC1(CCN(C(=O)c3cccc(-c4cc[nH]n4)c3)CC1)O2` [Ex. M33, 4-oxo-1′-[3-(1H-pyrazol-3-yl)benzoyl]3,4-dihydrospiro[chromene-2,4′-piperidine]-6-carbonitrile], the IC50 in experiment [3] (Table of Examples M1-M36) amounted to 1860 nM; in experiment [2] (Table of Examples M1-M36), 816 nM.
For the compound `Cc1cc2c(cc1Cl)C(=O)CC1(CCN(C(=O)c3cccc(-c4cc[nH]n4)c3)CC1)O2` [Ex. M3, 6-chloro-7-methyl-1′-[3-(1H-pyrazol-3-yl)benzoyl]spiro[chromene-2,4′-piperidin]-4(3H)-one], the figures for the IC50 in experiment [3] (Table of Examples M1-M36) and in experiment [2] (Table of Examples M1-M36) were 434 nM and 105 nM, respectively.
`CC(C)Oc1ccc2c(c1)C(=O)CC1(CCN(C(=O)c3cccc(-c4cc[nH]n4)c3)CC1)O2` [Ex. N3, 6-isopropoxy-1′-[3-(1H-pyrazol-3-yl)benzoyl]spiro[chromene-2,4′-piperidin]-4(3H)-one]: the values for the IC50 in experiment [3] (ACC2 from rat skeletal muscle) and in experiment [2] (ACC1 from rat liver) were 54.8 nM and 48.3 nM, respectively.
For `CCOc1ccc2c(c1)C(=O)CC1(CCN(C(=O)c3cc(C)c4[nH]ncc4c3)CC1)O2` [Ex. A4, 6-ethoxy-1′-[(7-methyl-1H-indazol-5-yl)carbonyl]spiro[chromene-2,4′-piperidin]-4(3H)-one], the IC50 in experiment [3] (ACC2 from rat skeletal muscle) is 29.9 nM; in experiment [2] (ACC1 from rat liver) it was 19.5 nM.
For the compound `COc1ccc2c(c1F)C(=O)CC1(CCN(C(=O)c3cc(C)c4[nH]ncc4c3)CC1)O2` [Ex. A9, 5-fluoro-6-methoxy-1′-[(7-methyl-1H-indazol-5-yl)carbonyl]spiro[chromene-2,4′-piperidin]-4(3H)-one], the inhibition at 30 mg/kg in experiment [1] stood at 33.5%. This compound yielded an IC50 in experiment [2] (ACC1 from rat liver) of 37.4 nM.
As for `Cc1cc(C(=O)N2CCC3(CC2)CC(=O)c2cc(OC(C)C)ccc2O3)cc2cn[nH]c12` [Ex. A3, 6-isopropoxy-1′-[(7-methyl-1H-indazol-5-yl)carbonyl]spiro[chromene-2,4′-piperidin]-4(3H)-one], the IC50 in experiment [3] (ACC2 from rat skeletal muscle) worked out at 17.2 nM; in experiment [2] (ACC1 from rat liver), 14.5 nM.
For `Cc1cc(C(=O)N2CCC3(CC2)CC(=O)c2cc(Cl)c(F)cc2O3)cc2cn[nH]c12` [Ex. A21, 6-chloro-7-fluoro-1′-[(7-methyl-1H-indazol-5-yl)carbonyl]spiro[chromene-2,4′-piperidin]-4(3H)-one], the inhibition at 30 mg/kg in experiment [1] was 59.5%. This compound registered an IC50 in experiment [2] (ACC1 from rat liver) of 96.6 nM.
For `Cc1cc2c(cc1Cl)C(=O)CC1(CCN(C(=O)c3ccc4[nH]ncc4c3)CC1)O2` [Ex. E2, 6-chloro-1′-(1H-indazol-5-ylcarbonyl)-7-methylspiro[chromene-2,4′-piperidin]-4(3H)-one], in that order: 30.7% and 108 nM.
